Laboratory results taken from ChEMBL document CHEMBL5584255, “Synthesis and antibacterial medicinal evaluation of carbothioamido hydrazonyl thiazolylquinolone with multitargeting antimicrobial potential to combat increasingly global resistance” (Eur J Med Chem, 2024).
≈ marks a conversion by molar mass, not a printed value. Calls of active or inactive are those of the source. No cut-off for these calls is given here.

Tests used:
Type in all cases: functional
Candida albicans [1] = assay: Antifungal activity against Candida albicans ATCC 90023
Escherichia coli [2] = assay: Antibacterial activity against Escherichia coli ATCC 25922 by microbroth dilution method
Klebsiella pneumoniae = assay: Antibacterial activity against Klebsiella pneumoniae by microbroth dilution method
Staphylococcus aureus [3] = assay: Antibacterial activity against drug-resistant Staphylococcus aureus by microbroth dilution method
Staphylococcus aureus [4] = assay: Antibacterial activity against Staphylococcus aureus ATCC 25923 by microbroth dilution method
Candida albicans [5] = assay: Antifungal activity against drug-resistant Candida albicans
Pseudomonas aeruginosa [6] = assay: Antibacterial activity against Pseudomonas aeruginosa by microbroth dilution method
Staphylococcus aureus [7] = assay: Antibacterial activity against Staphylococcus aureus ATCC 29213 by microbroth dilution method
Acinetobacter baumannii = assay: Antibacterial activity against Acinetobacter baumannii by microbroth dilution method
Pseudomonas aeruginosa [8] = assay: Antibacterial activity against Pseudomonas aeruginosa ATCC 27853 by microbroth dilution method
Escherichia coli [9] = assay: Antibacterial activity against drug-resistant Escherichia coli by microbroth dilution method
Enterococcus faecalis = assay: Antibacterial activity against drug-resistant Enterococcus faecalis by microbroth dilution method
Candida parapsilosis = assay: Antifungal activity against Candida parapsilosis ATCC 22019; settings: Lodderomyces parapsilosis
Candida tropicalis = assay: Antifungal activity against drug-resistant Candida tropicalis
Staphylococcus aureus [10] = assay: Antibacterial activity against methicillin-resistant Staphylococcus aureus N315 by microbroth dilution method
Aspergillus fumigatus = assay: Antifungal activity against Aspergillus fumigatus
Staphylococcus aureus [11] = assay: Induction of resistance development in Staphylococcus aureus measured after 4 passages

Structure (SMILES) | MIC (Candida albicans [1]) [µM] | MIC (Escherichia coli [2]) [µM] | MIC (Klebsiella pneumoniae) [µM] | MIC (Staphylococcus aureus [3]) [µM] | MIC (Staphylococcus aureus [4]) [µM] | MIC (Candida albicans [5]) [µM] | MIC (Pseudomonas aeruginosa [6]) [µM] | MIC (Staphylococcus aureus [7]) [µM] | MIC (Acinetobacter baumannii) [µM] | MIC (Pseudomonas aeruginosa [8]) [µM] | MIC (Escherichia coli [9]) [µM] | MIC (Enterococcus faecalis) [µM] | MIC (Candida parapsilosis) [µM] | MIC (Candida tropicalis) [µM] | MIC (Staphylococcus aureus [10]) [µM] | MIC (Aspergillus fumigatus) [µM] | Activity (Staphylococcus aureus [11])
Cc1nc(-c2c[nH]c3ccc(F)cc3c2=O)cs1 | 492 (≈ 128 µg/mL) | 492 (≈ 128 µg/mL) | 1970 (≈ 513 µg/mL) | 1970 (≈ 513 µg/mL) | 1970 (≈ 513 µg/mL) | 985 (≈ 256 µg/mL) | 985 (≈ 256 µg/mL) | 985 (≈ 256 µg/mL) | 492 (≈ 128 µg/mL) | 492 (≈ 128 µg/mL) | 1970 (≈ 513 µg/mL) | 985 (≈ 256 µg/mL) | 492 (≈ 128 µg/mL) | 985 (≈ 256 µg/mL) | 1970 (≈ 513 µg/mL) | 985 (≈ 256 µg/mL) | –
CCOC(=O)c1cn(C/C(C)=N/NC(N)=S)c2cc(Cl)c(F)cc2c1=O | 643 (≈ 256 µg/mL) | 1290 (≈ 513 µg/mL) | 643 (≈ 256 µg/mL) | 643 (≈ 256 µg/mL) | 643 (≈ 256 µg/mL) | 1290 (≈ 513 µg/mL) | 322 (≈ 128 µg/mL) | 643 (≈ 256 µg/mL) | 643 (≈ 256 µg/mL) | 322 (≈ 128 µg/mL) | 1290 (≈ 513 µg/mL) | 643 (≈ 256 µg/mL) | 161 (≈ 64.2 µg/mL) | 643 (≈ 256 µg/mL) | 643 (≈ 256 µg/mL) | 322 (≈ 128 µg/mL) | –
CCn1cc(C(=O)O)c(=O)c2cc(F)c(N3CCNCC3)cc21 [NORFLOXACIN] | – | 25 (≈ 7.98 µg/mL) | 802 (≈ 256 µg/mL) | 25 (≈ 7.98 µg/mL) | 2 (≈ 0.639 µg/mL) | – | 1600 (≈ 512 µg/mL) | 3 (≈ 0.958 µg/mL) | 802 (≈ 256 µg/mL) | 50 (≈ 16 µg/mL) | 1600 (≈ 512 µg/mL) | 802 (≈ 256 µg/mL) | – | – | 25 (≈ 7.98 µg/mL) | – | inactive
Nc1nc(-c2c[nH]c3c(F)cccc3c2=O)cs1 | 490 (≈ 128 µg/mL) | 981 (≈ 256 µg/mL) | 981 (≈ 256 µg/mL) | 981 (≈ 256 µg/mL) | 981 (≈ 256 µg/mL) | 981 (≈ 256 µg/mL) | 981 (≈ 256 µg/mL) | 981 (≈ 256 µg/mL) | 490 (≈ 128 µg/mL) | 981 (≈ 256 µg/mL) | 981 (≈ 256 µg/mL) | 490 (≈ 128 µg/mL) | 245 (≈ 64 µg/mL) | 981 (≈ 256 µg/mL) | 981 (≈ 256 µg/mL) | 490 (≈ 128 µg/mL) | –
C/C(Cn1cc(-c2csc(N)n2)c(=O)c2cc(F)c(Cl)cc21)=N\O | 44 (≈ 16.1 µg/mL) | 22 (≈ 8.07 µg/mL) | 699 (≈ 256 µg/mL) | 44 (≈ 16.1 µg/mL) | 44 (≈ 16.1 µg/mL) | 87 (≈ 31.9 µg/mL) | 87 (≈ 31.9 µg/mL) | 44 (≈ 16.1 µg/mL) | 350 (≈ 128 µg/mL) | 44 (≈ 16.1 µg/mL) | 350 (≈ 128 µg/mL) | 350 (≈ 128 µg/mL) | 44 (≈ 16.1 µg/mL) | 699 (≈ 256 µg/mL) | 350 (≈ 128 µg/mL) | 699 (≈ 256 µg/mL) | –
Cc1nc(-c2c[nH]c3cc(Cl)c(F)cc3c2=O)cs1 | 109 (≈ 32.1 µg/mL) | 435 (≈ 128 µg/mL) | 871 (≈ 257 µg/mL) | 871 (≈ 257 µg/mL) | 435 (≈ 128 µg/mL) | 435 (≈ 128 µg/mL) | 871 (≈ 257 µg/mL) | 871 (≈ 257 µg/mL) | 435 (≈ 128 µg/mL) | 435 (≈ 128 µg/mL) | 1740 (≈ 513 µg/mL) | 871 (≈ 257 µg/mL) | 218 (≈ 64.3 µg/mL) | 871 (≈ 257 µg/mL) | 435 (≈ 128 µg/mL) | 435 (≈ 128 µg/mL) | –
C/C(Cn1cc(-c2csc(N)n2)c(=O)c2cc(F)c(F)cc21)=N\NC(N)=S | 314 (≈ 128 µg/mL) | 314 (≈ 128 µg/mL) | 627 (≈ 256 µg/mL) | 78 (≈ 31.9 µg/mL) | 78 (≈ 31.9 µg/mL) | 1260 (≈ 513 µg/mL) | 314 (≈ 128 µg/mL) | 39 (≈ 15.9 µg/mL) | 314 (≈ 128 µg/mL) | 314 (≈ 128 µg/mL) | 627 (≈ 256 µg/mL) | 627 (≈ 256 µg/mL) | 1260 (≈ 513 µg/mL) | 1260 (≈ 513 µg/mL) | 78 (≈ 31.9 µg/mL) | 314 (≈ 128 µg/mL) | –
C/C(Cn1cc(-c2csc(N)n2)c(=O)c2cc(F)cc(F)c21)=N\NC(N)=S | 627 (≈ 256 µg/mL) | 1260 (≈ 513 µg/mL) | 627 (≈ 256 µg/mL) | 78 (≈ 31.9 µg/mL) | 157 (≈ 64.1 µg/mL) | 627 (≈ 256 µg/mL) | 627 (≈ 256 µg/mL) | 78 (≈ 31.9 µg/mL) | 627 (≈ 256 µg/mL) | 627 (≈ 256 µg/mL) | 1260 (≈ 513 µg/mL) | 1260 (≈ 513 µg/mL) | 314 (≈ 128 µg/mL) | 627 (≈ 256 µg/mL) | 314 (≈ 128 µg/mL) | 1260 (≈ 513 µg/mL) | –
